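1) Cells in 96-well plates. 2) Compound, 48 h, 5 concentrations. 3) Linear interpolation between surrounding doses. 4) Unreached endpoint = highest concentration. TGI marks complete inhibition of growth.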
Columns and labels:
Test in all cases: inhibition of tumour cell growth, NCI panel, 48 h
HCT-15 colon = system: HCT-15 colon
DLD-1 colon = system: DLD-1 colon
NCI-H522 lung = system: NCI-H522 lung
HOP-62 NSCLC = system: HOP-62 NSCLC
HL-60(TB) leukemia = system: HL-60(TB) leukemia
HT29 colon = system: HT29 colon
NCI-H23 lung = system: NCI-H23 lung
HCT-116 colon = system: HCT-116 colon
M19-MEL melanoma = system: M19-MEL melanoma
SF-539 CNS = system: SF-539 CNS
NCI-H460 lung = system: NCI-H460 lung
HOP-92 NSCLC = system: HOP-92 NSCLC
UACC-257 melanoma = system: UACC-257 melanoma
ACHN renal = system: ACHN renal
DMS 273 small cell lung = system: DMS 273 small cell lung
KM12 colon = system: KM12 colon
EKVX NSCLC = system: EKVX NSCLC
SK-MEL-2 melanoma = system: SK-MEL-2 melanoma
A498 renal = system: A498 renal
TK-10 renal = system: TK-10 renal
SW-620 colon = system: SW-620 colon
OVCAR-4 ovarian = system: OVCAR-4 ovarian
DMS 114 small cell lung = system: DMS 114 small cell lung
SK-MEL-5 melanoma = system: SK-MEL-5 melanoma
MALME-3M melanoma = system: MALME-3M melanoma
HCC-2998 colon = system: HCC-2998 colon
M14 melanoma = system: M14 melanoma
KM20L2 colon = system: KM20L2 colon
LOX IMVI melanoma = system: LOX IMVI melanoma
COLO 205 colon = system: COLO 205 colon
HOP-18 NSCLC = system: HOP-18 NSCLC
OVCAR-3 ovarian = system: OVCAR-3 ovarian
CCRF-CEM leukemia = system: CCRF-CEM leukemia
UACC-62 melanoma = system: UACC-62 melanoma
786-0 renal = system: 786-0 renal
UO-31 renal = system: UO-31 renal
MOLT-4 leukemia = system: MOLT-4 leukemia
U251 CNS = system: U251 CNS
CAKI-1 renal = system: CAKI-1 renal
SNB-75 CNS = system: SNB-75 CNS
K-562 leukemia = system: K-562 leukemia
OVCAR-8 ovarian = system: OVCAR-8 ovarian
LXFL 529 NSCLC = system: LXFL 529 NSCLC
RXF 393 renal = system: RXF 393 renal
SNB-19 CNS = system: SNB-19 CNS
OVCAR-5 ovarian = system: OVCAR-5 ovarian
NCI-H226 lung = system: NCI-H226 lung
SNB-78 CNS = system: SNB-78 CNS
SF-295 CNS = system: SF-295 CNS
SN12C renal = system: SN12C renal
SK-MEL-28 melanoma = system: SK-MEL-28 melanoma
IGROV1 ovarian = system: IGROV1 ovarian
SF-268 CNS = system: SF-268 CNS
RPMI-8226 leukemia = system: RPMI-8226 leukemia
A549 NSCLC = system: A549 NSCLC
SK-OV-3 ovarian = system: SK-OV-3 ovarian

In the case of `COc1ccc(C2=C3c4cc(OC)c(OC)cc4CCN3C(=S)SS2)cc1OC`, the TGI (HCT-15 colon) is reported as > 100 µM, the TGI (DLD-1 colon) is reported as > 100 µM and the TGI (NCI-H522 lung) is reported as > 100 µM. For the same molecule, the TGI (HOP-62 NSCLC) was > 100 µM, the TGI (HL-60(TB) leukemia) was > 100 µM and the TGI (HT29 colon) was > 100 µM. The TGI (NCI-H23 lung) was > 100 µM, the TGI (HCT-116 colon) was > 100 µM and the TGI (M19-MEL melanoma) was > 100 µM. For the same molecule, the TGI (SF-539 CNS) was > 100 µM, the TGI (NCI-H460 lung) was > 100 µM and the TGI (HOP-92 NSCLC) was > 100 µM. The TGI (UACC-257 melanoma) was > 100 µM, the TGI (ACHN renal) was > 100 µM and the TGI (DMS 273 small cell lung) was > 100 µM. For the same molecule, the TGI (KM12 colon) was > 100 µM, the TGI (EKVX NSCLC) was > 100 µM and the TGI (SK-MEL-2 melanoma) was > 100 µM. For the same molecule, the TGI (A498 renal) was > 100 µM, the TGI (TK-10 renal) was > 100 µM and the TGI (SW-620 colon) was > 100 µM. The TGI (OVCAR-4 ovarian) was > 100 µM, the TGI (DMS 114 small cell lung) was > 100 µM and the TGI (SK-MEL-5 melanoma) was > 100 µM. The TGI (MALME-3M melanoma) was 97.6 µM, the TGI (HCC-2998 colon) was > 100 µM and the TGI (M14 melanoma) was > 100 µM. For the same molecule, the TGI (KM20L2 colon) was > 100 µM, the TGI (LOX IMVI melanoma) was > 100 µM and the TGI (COLO 205 colon) was > 100 µM. For the same molecule, the TGI (HOP-18 NSCLC) was > 100 µM, the TGI (OVCAR-3 ovarian) was > 100 µM and the TGI (CCRF-CEM leukemia) was > 100 µM. For the same molecule, the TGI (UACC-62 melanoma) was > 100 µM, the TGI (786-0 renal) was > 100 µM and the TGI (UO-31 renal) was > 100 µM. The TGI (MOLT-4 leukemia) was > 100 µM, the TGI (U251 CNS) was > 100 µM and the TGI (CAKI-1 renal) was > 100 µM. The TGI (SNB-75 CNS) was > 100 µM, the TGI (K-562 leukemia) was > 100 µM and the TGI (OVCAR-8 ovarian) was > 100 µM. The TGI (LXFL 529 NSCLC) was > 100 µM, the TGI (RXF 393 renal) was > 100 µM and the TGI (SNB-19 CNS) was > 100 µM. The TGI (OVCAR-5 ovarian) was > 100 µM, the TGI (NCI-H226 lung) was > 100 µM and the TGI (SNB-78 CNS) was > 100 µM. The TGI (SF-295 CNS) was > 100 µM, the TGI (SN12C renal) was > 100 µM and the TGI (SK-MEL-28 melanoma) was > 100 µM. The TGI (IGROV1 ovarian) was > 100 µM, the TGI (SF-268 CNS) was > 100 µM and the TGI (RPMI-8226 leukemia) was > 100 µM. The TGI (A549 NSCLC) was > 100 µM and the TGI (SK-OV-3 ovarian) was > 100 µM.

— PubChem BioAssay (NCI)
